Measurements as given in publication PMC9081329, “Pharmacokinetics, Mass Balance, Excretion, and Tissue Distribution of Plasmalogen Precursor PPI-1011” (Frontiers in Cell and Developmental Biology, 2022).

Assay: Single dose tissue distribution study (QWBA, LSC of blood and plasma)
Type: in vivo, Sprague-Dawley rats
Experimental: Six male rats were administered a single oral dose of [^14C]PPI-1011 at 100 mg/kg (200 μCi/kg) and one rat was sacrificed at each of the following time points after the administration of the dose: 8, 12, 18, 24, 48, or 168 h. Terminal blood was collected by cardiac puncture directly into tubes with K2EDTA, an aliquot was stored at 4°C until LSC was performed for radioactivity, while the remaining blood was processed to plasma and stored at −20°C until LSC. Following blood collection, the carcasses were frozen in a cold bath with hexanes and dry ice for at least 8 min and then dried and stored at −70°C for at least 5 h. The carcasses were transferred to a −20°C freezer for at least 12 h before embedding.
QWBA was used to determine radioactivity concentrations in the caecum (contents and mucosa), large intestine (contents and mucosa), small intestine (contents and mucosa), stomach (contents and mucosa), brain, choroid plexus, spinal cord, bone, skin, adrenal gland, pineal body, pituitary gland, thyroid gland, liver, kidney (cortex, medulla and whole kidney), urinary bladder (contents and wall), brown fat, white fat, eye (lens, uveal tract and whole eye), epididymis, prostate gland, testis, ovary, uterus, lung, exorbital lachrymal gland, Harderian gland, pancreas, salivary gland, skeletal muscle, myocardium, cardiac blood, bone marrow, lymph node, spleen, and thymus. As well, LSC was used to determine the total radioactivity in the whole blood and plasma.
The whole-body cryosectioning technique described by ([Ullberg, 1977]) was the basis for embedding and cryosectioning the rats assigned to this study. Each frozen carcass was shaved, and then the limbs and tail were removed prior to embedding. Chilled (4°C) 3% CMC (low viscosity) was utilized to provide a firm support of reinforced ice around each rat and for a secure attachment to the microtome stage. Upon thorough freezing of the embedding medium surrounding each rat, the frozen CMC block was removed from the freezing bath and four 3/8 inch holes were drilled into the block. One cryosection quality control standard (CQCS) was prepared with a known amount of radioactivity and at least 1 ml aliquots were added to each of the four drilled holes. CQCS data were utilized to evaluate the overall performance of the QWBA assay.
Each frozen rat was sagittally trimmed (50–100 μm) at −20°C until exposure of a few target tissues employing a Leica Cryomacrocut heavy-duty microtome (Leica Microsystems Inc.,). Disposable stainless steel Feather type H45L knives (Feather Safety Razor Co., Ltd.) were utilized for trimming and sectioning each frozen rat. Several thinner sections (50 μm) were discarded prior to obtaining multiple 50 μm sections at various cryosectioning levels for QWBA analysis. Upon the collection of at least 60 target tissues in multiple cryosectioning levels, the cryosections were kept in the Cryomacrocut cryochamber for a minimum of 18 h for dehydration depending upon the number of cryosections within the cryochamber. After dehydration was complete, the cryosections were transferred to ambient temperature for processing. Mounted whole-body cryosections and a set of 15 standards were sandwiched between a standard phosphor screen and an exposure cassette. All cryosections were exposed to the phosphor screen for 4-days in a cabinet protected with lead prior to scanning using a Typhoon PhosphorImager (Cytiva). MCID™ Analysis software (InterFocus Ltd.) was utilized to generate a calibration curve of the STD nominal concentrations (nCi/g) versus PhosphorImager response (counts/μm^2 minus background) by weighted (1/x) linear regression analysis ([Potchoiba et al., 1995]; [Potchoiba et al., 1998]). The linear regression curve was then utilized to determine the concentration (nCi/g) of total radioactivity in whole-body tissues and blood. Radioactivity concentrations were expressed as μg Eq/g based on the specific activity of the compound in the final dose formulations. […]

[1] = 48 h post single oral 100 mg/kg
[2] = 168 h post single oral 100 mg/kg

With CC/C=C\C/C=C\C/C=C\C/C=C\C/C=C\C/C=C\CCC(=O)O[C@H](CO[14CH2]CCCCCCCCCCCCCCC)COC(=O)CCCCC1CCSS1 (stereo partly shown) [[^14C]PPI-1011] the “Radioactivity concentration, Small Intestines” value [1] was 43.3 μg equivalents/g, the “Radioactivity concentration, Spinal Cord” value [1] was 2.56 μg equivalents/g and the “Radioactivity concentration, Spleen” value [1] was 33.1 μg equivalents/g. The “Radioactivity concentration, Stomach” value [1] was 8.01 μg equivalents/g, the “Radioactivity concentration, Testis” value [1] was 4.02 μg equivalents/g and the “Radioactivity concentration, Thalamus” value [1] was 1.91 μg equivalents/g. For the same molecule, the “Radioactivity concentration, Thymus” value [1] was 9.58 μg equivalents/g, the “Radioactivity concentration, Thyroid” value [1] was 27.2 μg equivalents/g and the “Radioactivity concentration, Whole Brain” value [1] was 2.45 μg equivalents/g. The “Radioactivity concentration, Adipose - Brown” value [2] was 89.0 μg equivalents/g, the “Radioactivity concentration, Adipose - Brown (Vessel Wall)” value [2] was 76.7 μg equivalents/g and the “Radioactivity concentration, Adipose - Subcutaneous” value [2] was 89.3 μg equivalents/g. For the same molecule, the “Radioactivity concentration, Adipose - Visceral” value [2] was 90.7 μg equivalents/g, the “Radioactivity concentration, Adrenal Gland” value [2] was 142 μg equivalents/g and the “Radioactivity concentration, Bladder Wall” value [2] was less than 0.485 μg equivalents/g. For the same molecule, the “Radioactivity concentration, Blood - QWBA” value [2] was 2.56 μg equivalents/g, the “Radioactivity concentration, Bone Marrow” value [2] was 4.69 μg equivalents/g and the “Radioactivity concentration, Cerebellum” value [2] was 3.59 μg equivalents/g. For the same molecule, the “Radioactivity concentration, Cerebrum” value [2] was 2.94 μg equivalents/g, the “Radioactivity concentration, Choroid Plexus” value [2] was 10.4 μg equivalents/g and the “Radioactivity concentration, Colliculus” value [2] was 3.97 μg equivalents/g. For the same molecule, the “Radioactivity concentration, Diaphragm” value [2] was 11.7 μg equivalents/g, the “Radioactivity concentration, Epididymis” value [2] was 7.75 μg equivalents/g and the “Radioactivity concentration, Esophagus” value [2] was 5.34 μg equivalents/g. For the same molecule, the “Radioactivity concentration, Exorbital Lacrimal Gland” value [2] was 7.36 μg equivalents/g, the “Radioactivity concentration, Gastric Mucosa” value [2] was 14.5 μg equivalents/g and the “Radioactivity concentration, Harderian Gland” value [2] was 3.67 μg equivalents/g. For the same molecule, the “Radioactivity concentration, Intra-Orbital Lacrimal Gland” value [2] was 5.01 μg equivalents/g, the “Radioactivity concentration, Kidney” value [2] was 14.5 μg equivalents/g and the “Radioactivity concentration, Large Intestines” value [2] was 14.0 μg equivalents/g. The “Radioactivity concentration, Liver” value [2] was 7.50 μg equivalents/g, the “Radioactivity concentration, Lung” value [2] was 11.2 μg equivalents/g and the “Radioactivity concentration, Lymph Node” value [2] was 12.3 μg equivalents/g. The “Radioactivity concentration, Medulla Oblongata” value [2] was 3.13 μg equivalents/g, the “Radioactivity concentration, Muscle” value [2] was 7.01 μg equivalents/g and the “Radioactivity concentration, Myocardium” value [2] was 13.4 μg equivalents/g. For the same molecule, the “Radioactivity concentration, Nasal Turbinates” value [2] was 4.29 μg equivalents/g, the “Radioactivity concentration, Ocular - Uveal Tract” value [2] was 6.48 μg equivalents/g and the “Radioactivity concentration, Ocular - Whole Eye” value [2] was 1.55 μg equivalents/g. The “Radioactivity concentration, Olfactory Bulb” value [2] was 2.25 μg equivalents/g, the “Radioactivity concentration, Pancreas” value [2] was 18.2 μg equivalents/g and the “Radioactivity concentration, Parotid Gland” value [2] was 12.3 μg equivalents/g. The “Radioactivity concentration, Pineal Gland” value [2] was 12.0 μg equivalents/g, the “Radioactivity concentration, Pituitary Gland” value [2] was 12.9 μg equivalents/g and the “Radioactivity concentration, Preputial Gland” value [2] was 69.0 μg equivalents/g. The “Radioactivity concentration, Prostate” value [2] was 4.44 μg equivalents/g, the “Radioactivity concentration, Renal Cortex” value [2] was 15.3 μg equivalents/g and the “Radioactivity concentration, Renal Medulla” value [2] was 11.8 μg equivalents/g. The “Radioactivity concentration, Salivary Gland” value [2] was 15.4 μg equivalents/g, the “Radioactivity concentration, Seminal Vesicles” value [2] was less than 0.485 μg equivalents/g and the “Radioactivity concentration, Skin - Non-Pigmented” value [2] was 10.2 μg equivalents/g. For the same molecule, the “Radioactivity concentration, Small Intestines” value [2] was 139 μg equivalents/g, the “Radioactivity concentration, Spinal Cord” value [2] was 3.33 μg equivalents/g and the “Radioactivity concentration, Spleen” value [2] was 9.36 μg equivalents/g. The “Radioactivity concentration, Stomach” value [2] was 4.97 μg equivalents/g, the “Radioactivity concentration, Testis” value [2] was 3.08 μg equivalents/g and the “Radioactivity concentration, Thalamus” value [2] was 2.78 μg equivalents/g. For the same molecule, the “Radioactivity concentration, Thymus” value [2] was 7.84 μg equivalents/g, the “Radioactivity concentration, Thyroid” value [2] was 18.9 μg equivalents/g and the “Radioactivity concentration, Whole Brain” value [2] was 3.08 μg equivalents/g. The “Decline of radioactivity from peak concentration, brown adipose” value (by 168 HPD, single dose) was “approximately 5 fold”, the “Decline of radioactivity from peak concentration, subcutaneous adipose” value (by 168 HPD, single dose) was roughly 2 fold and the “Decline of radioactivity from peak concentration, visceral adipose” value (by 168 HPD, single dose) was roughly 3 fold. For the same molecule, the “Average concentration in choroid plexus, pineal gland, pituitary gland versus non-circumventricular CNS tissues” value (seven days after single dose) was “approximately 4 fold”, the “Radioactivity in urine within the urinary bladder” value (single dose) was “no detection of radioactivity” and the “Time of highest blood concentration” value (single dose) was 8 HPD. For the same molecule, the “Time of highest peak concentration, bladder wall” value (single dose) was 8 HPD, the “Time of highest peak concentration, brown adipose” value (single dose) was 12 HPD and the “Time of highest peak concentration, cecum” value (single dose) was 12 HPD. The “Time of highest peak concentration, choroid plexus” value (single dose) was 12 HPD, the “Time of highest peak concentration, epididymis” value (single dose) was 12 HPD and the “Time of highest peak concentration, esophagus” value (single dose) was 8 HPD. The “Time of highest peak concentration, gastric mucosa” value (single dose) was 8 HPD, the “Time of highest peak concentration, large intestines” value (single dose) was 12 HPD and the “Time of highest peak concentration, pineal gland” value (single dose) was 48 HPD. For the same molecule, the “Time of highest peak concentration, pituitary gland” value (single dose) was 18 HPD, the “Time of highest peak concentration, preputial gland” value (single dose) was 12 HPD and the “Time of highest peak concentration, prostate” value (single dose) was 24 HPD. The “Time of highest peak concentration, small intestines” value (single dose) was 8 HPD, the “Time of highest peak concentration, stomach” value (single dose) was 12 HPD and the “Time of highest peak concentration, subcutaneous adipose” value (single dose) was 12 HPD. For the same molecule, the “Time of highest peak concentration, testis” value (single dose) was 18 HPD, the “Time of highest peak concentration, visceral adipose” value (single dose) was 12 HPD and the “Time of peak levels, non-circumventricular CNS tissue” value (single dose) was 168 HPD. The “Concentration in choroid plexus, pineal gland, pituitary gland versus non-circumventricular CNS tissues” value (throughout the time course, single dose) was “approximately 4 fold”.
